Results published in PubChem BioAssay (NCI).
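Five compound concentrations were applied to cells in 96-well plates for 48 hours; endpoints were derived by simple linear interpolation of the resulting dose-response curve. Abbreviation: GI50, concentration required for 50% inhibition of growth. The concentration for full growth arrest is given as TGI.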

Experiments:
Experiment in all cases: NCI tumour cell line growth inhibition, 48 h
SF-268 CNS = test system: SF-268 CNS
SK-MEL-2 melanoma = test system: SK-MEL-2 melanoma
HCC-2998 colon = test system: HCC-2998 colon
SNB-75 CNS = test system: SNB-75 CNS
LOX IMVI melanoma = test system: LOX IMVI melanoma
NCI-H522 lung = test system: NCI-H522 lung
RXF 393 renal = test system: RXF 393 renal
EKVX NSCLC = test system: EKVX NSCLC

Compound | GI50 (SF-268 CNS) [µM] | TGI (SF-268 CNS) [µM] | GI50 (SK-MEL-2 melanoma) [µM] | TGI (SK-MEL-2 melanoma) [µM] | GI50 (HCC-2998 colon) [µM] | TGI (HCC-2998 colon) [µM] | GI50 (SNB-75 CNS) [µM] | TGI (SNB-75 CNS) [µM] | GI50 (LOX IMVI melanoma) [µM] | TGI (LOX IMVI melanoma) [µM] | GI50 (NCI-H522 lung) [µM] | TGI (NCI-H522 lung) [µM] | GI50 (RXF 393 renal) [µM] | TGI (RXF 393 renal) [µM] | GI50 (EKVX NSCLC) [µM] | TGI (EKVX NSCLC) [µM]
O=C(Nc1cc(C(F)(F)F)cc(C(F)(F)F)c1)Nc1ccc(OCc2nnc(-c3ccc(Cl)cc3)o2)c(F)c1 | 4.08 | 21 | 2.73 | 6.26 | 3.12 | 12 | 1.32 | 5.37 | 2.07 | 5.31 |  |  |  |  |  | 
COC(=O)c1ccc(NC(N)=NCC(C)(C)COc2ccc(C(F)(F)F)cc2)nc1 |  |  | 1.86 | 3.47 |  |  | 1.57 | 3.27 |  |  | 1.6 | 3.23 | 1.49 | 2.96 | 1.43 | 3.41
Cc1ccc(S(=O)(=O)NNC(C[N+](=O)[O-])c2ccccc2)cc1 (stereo not drawn) |  | 35.7 |  | 75 |  |  |  | 41 |  | > 100 |  | 44.1 |  | 11.2 |  | > 100
Cc1nc2ccccc2c(/C=C/c2ccccc2)c1C(=O)/C=C/c1ccc(Cl)cc1 | 3.15 | > 100 |  |  | 1.81 | 3.35 |  |  | 1.23 | 2.49 |  |  | 1.28 | 2.64 |  | 
O=C1C(CO)=C[C@@H](O)[C@H]2O[C@@H]12 |  | > 100 |  | > 100 |  |  |  | > 100 |  | 65.4 |  | > 100 |  |  |  | > 100
Oc1cc2c(cc1C(c1ccc3c(c1)OCO3)N1CCN(C(c3ccc4c(c3)OCO4)c3cc4c(cc3O)OCO4)CC1)OCO2 (stereo not drawn) |  | 59.3 |  | 41.6 |  |  |  | 13.7 |  | 18.7 |  | 33.5 |  | > 100 |  | 98.6
O=C(O)c1nnsc1-c1csnn1 |  | > 100 |  | > 100 |  |  |  | > 100 |  | > 100 |  | > 100 |  | > 100 |  | > 100
CCOc1ccc2c(c1)C(=O)c1c-2n(CCCN)c(=O)c2cc([N+](=O)[O-])ccc12 | 0.0115 | 1.06 | 1.53 | 3.27 | 0.183 | 1.4 |  |  | 0.0144 | 1.15 | 0.0134 | 1.52 | 0.499 | 1.96 | 1.19 | 2.57
OCC#CCCCCOCC#Cc1ccccc1C#CCOCCCCC#CCO | 37.4 | > 100 | 51.1 | > 100 |  |  | 20.6 | 66.2 | 12.5 | 27.3 | 71.3 | > 100 | 31.8 | 96.9 | 17.8 | 41.3
CCCCCCCC(=O)NS(=O)(=O)c1ccccc1 |  | > 100 |  | > 100 |  | > 100 |  | > 100 |  | > 100 |  | > 100 |  |  |  | > 100
NC(=NCCO)c1ccc(N2CCCN(c3ccc(C(N)=NCCO)cc3)CC2)cc1 |  |  |  |  | > 100 | > 100 | > 100 | > 100 | > 100 | > 100 |  |  |  |  |  | 
COC(=O)[C@@H]1[C@H](O)[C@H](C)[C@H](O)[C@H](C)/C=C\C=C(C)C(=O)Nc2c(C)c(OC(C)=O)c3c(c2O)C(=O)C(C)=C2OCOC(=C23)C(C)=C[C@@](C)(O)[C@H](O)[C@@H](C)[C@H]1OC(C)=O |  | > 100 |  |  |  |  |  | > 100 |  | > 100 |  |  |  | > 100 |  | > 100
COc1ccccc1Nc1nc2ccccc2c2occc12 | 12.3 | > 50 | 12 | 28.2 |  |  |  |  | 9.28 | 17.4 | 12 | 29.7 | 13.1 | 23.9 | 11.9 | 28.1
Oc1c(Cl)cc(CN(Cc2cc(Cl)c(O)c(Cl)c2)C2CCCCC2)cc1Cl |  | > 100 |  | > 100 |  |  |  | > 100 |  | > 100 |  | > 100 |  | > 100 |  | > 100
Cc1cc(S(=O)(=O)Nc2nc3ccccc3[nH]2)c(SCc2ccccc2)cc1Cl | > 100 | > 100 | > 100 | > 100 | 21.4 | > 100 |  |  | 28.4 | > 100 | > 100 | > 100 | > 100 | > 100 | > 100 | > 100
COc1ccc(C2CC(c3cccc(OC)c3)=NN2C(=O)c2cc(OC)c(OC)c(OC)c2)cc1 (stereo not drawn) | 4.09 | > 100 | 10.3 | > 100 | 4.27 | > 100 | 0.624 | > 100 | 4.26 | > 100 | 2.66 | > 22.1 |  |  | 3.35 | > 100
C=C(CN(C)Cc1ccccc1)c1ccc(C(=O)Nc2ccccc2N)cc1 | 5.98 | 16.8 | 8.73 | 40.5 |  |  |  |  | 1.05 | 3.69 |  |  |  |  | 8.17 | 37.9
Nc1cc(N)cc(Cc2ccccc2)c1 |  | > 100 |  | > 100 |  | > 100 |  |  |  | > 100 |  | > 100 |  | > 100 |  | > 100
